Measured values as given in ChEMBL document CHEMBL4421726, “Novel prodrug salts” (2016).
The source made the active and inactive calls. No cut-off for these calls is given here.

Tests used:
[1] = Solubility in water; assay type: physicochemical
[2] = Stability of the compound in solid state assessed as compound hydrolysis; assay type: physicochemical
[3] = Stability of the compound in pH 7.5 buffer assessed as compound hydrolysis measured over 12 hrs; assay type: physicochemical; settings: read-out: Drug degradation
[4] = Stability of the compound in pH 7.5 buffer assessed as compound hydrolysis at room temperature; assay type: physicochemical; settings: read-out: Drug degradation
[5] = Drug metabolism in mouse plasma assessed as formation of N-3,5-bis(trifluoromethyl)phenyl-5-chloro-2-hydroxybenzamide measured within 5 mins; assay type: ADME, cell-free
[6] = Drug metabolism in mouse plasma assessed as formation of 2-3,5-bis(trifluoromethyl)phenylcarbamoyl-4-chlorophenyl phosphate bis-ethanolamine salt at 10 mg/kg, ip loading dose and 1 mg/ml at 8 ul/hr maintenance dose measured at 15 mins and 24 hrs post dose by LC-MS/MS analysis; assay type: ADME, organism-based; settings: in vivo
[7] = Drug metabolism in mouse plasma assessed as formation of N-3,5-bis(trifluoromethyl)phenyl-5-chloro-2-hydroxybenzamide at 10 mg/kg, ip loading dose and 1 mg/ml at 8 ul/hr maintenance dose measured at 15 mins and 24 hrs post dose by LC-MS/MS analysis; assay type: ADME, organism-based; settings: in vivo
[8] = Drug metabolism in mouse plasma assessed as N-3,5-bis(trifluoromethyl)phenyl-5-chloro-2-hydroxybenzamide level at 10 mg/kg, ip loading dose and 1 mg/ml at 8 ul/hr maintenance dose measured at 15 mins and 24 hrs post dose by LC-MS/MS analysis; assay type: ADME, organism-based; settings: in vivo
[9] = system: Mus musculus; test: Drug absorption mouse plasma assessed as rate of drug absorption at 10 mg/kg, ip loading dose and 1 mg/ml at 8 ul/hr maintenance dose measured at 15 mins and 24 hrs post dose by LC-MS/MS analysis; assay type: ADME, organism-based; settings: in vivo
[10] = Drug elimination mouse plasma assessed as rate of drug elimination at 10 mg/kg, ip loading dose and 1 mg/ml at 8 ul/hr maintenance dose measured at 15 mins and 24 hrs post dose by LC-MS/MS analysis; assay type: ADME, organism-based
[11] = Stability of the compound in pH 9.5 buffer assessed as compound hydrolysis measured over 12 hrs; assay type: physicochemical; settings: read-out: Drug degradation
[12] = Stability of the compound in pH 9.5 buffer assessed as compound hydrolysis at room temperature; assay type: physicochemical; settings: read-out: Drug degradation
[13] = Stability of the compound assessed as compound hydrolysis at room temperature after 5 days; assay type: physicochemical; settings: read-out: Drug degradation
[14] = system: Mus musculus; test: Inhibition of water toxicity in mouse water toxicity model assessed as time to 50% survival for animals at 0.76 mg/kg relative to control; assay type: functional
[15] = system: Mus musculus; test: Inhibition of water shock-induced cerebral edema in mouse water toxicity model assessed as reduction in extent of cerebral edema at 0.76 mg/kg by MRI analysis relative to control; assay type: functional, organism-based
[16] = Plasma concentration in mouse water toxicity model a at 0.76 mg/kg; assay type: organism-based; settings: in vivo
[17] = molecular target: Aquaporin-4 (Homo sapiens) (UniProt P55087); test: Inhibition of AQP4 (unknown origin) expressed in CHO cells assessed as reduction in water shock-induced aquaporin-mediated cell bursting at 10 uM incubated for 30 mins by calcein-AM fluorescence end-point assay; assay type: cell-based
Aquaporin-4 (Homo sapiens), sequence (P55087 whole entry): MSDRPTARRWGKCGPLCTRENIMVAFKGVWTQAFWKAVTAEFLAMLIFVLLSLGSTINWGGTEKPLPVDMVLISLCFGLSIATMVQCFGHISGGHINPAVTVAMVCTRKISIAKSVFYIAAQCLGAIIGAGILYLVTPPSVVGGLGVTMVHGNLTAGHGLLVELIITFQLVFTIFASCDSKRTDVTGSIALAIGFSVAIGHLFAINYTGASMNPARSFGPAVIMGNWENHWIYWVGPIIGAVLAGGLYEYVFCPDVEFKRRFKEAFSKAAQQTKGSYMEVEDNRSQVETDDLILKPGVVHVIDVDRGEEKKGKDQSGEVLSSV

[18] = system: Mus musculus; test: Improvement in neurological outcome in intraluminal monofilament mouse model of middle cerebral artery occlusion at 2 mg/kg, ip loading dose and 1 mg/ml at 8 ul/hr maintenance dose; assay type: functional, organism-based
[19] = system: Mus musculus; test: Improvement in neurological outcome in intraluminal monofilament mouse model of middle cerebral artery occlusion assessed as reduction in severe paralysis progress at 2 mg/kg, ip loading dose and 1 mg/ml at 8 ul/hr maintenance dose; assay type: functional, organism-based
[20] = system: Mus musculus; test: Improvement in neurological outcome in intraluminal monofilament mouse model of middle cerebral artery occlusion assessed as reduction in death incidence at 2 mg/kg, ip loading dose and 1 mg/ml at 8 ul/hr maintenance dose; assay type: functional, organism-based
[21] = Stability of the compound in pH 8.5 buffer assessed as compound hydrolysis measured over 12 hrs; assay type: physicochemical; settings: read-out: Drug degradation
[22] = Stability of the compound in pH 8.5 buffer assessed as compound hydrolysis at room temperature; assay type: physicochemical; settings: read-out: Drug degradation
[23] = molecular target: T1, Aquaporin-2 (Homo sapiens) (UniProt P41181); test: Inhibition of AQP2 (unknown origin) expressed in CHO cells assessed as reduction in aquaporin-mediated cell Volume change at 10 uM by light scattering based assay
T1 sequence (whole entry): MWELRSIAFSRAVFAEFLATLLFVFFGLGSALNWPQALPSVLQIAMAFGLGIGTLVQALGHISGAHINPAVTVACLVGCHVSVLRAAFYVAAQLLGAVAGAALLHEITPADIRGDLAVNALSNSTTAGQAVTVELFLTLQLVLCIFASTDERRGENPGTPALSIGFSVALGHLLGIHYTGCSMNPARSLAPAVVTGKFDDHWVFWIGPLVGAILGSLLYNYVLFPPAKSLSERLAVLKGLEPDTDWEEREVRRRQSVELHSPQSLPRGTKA

[24] = molecular target: T2, Aquaporin-1 (Homo sapiens) (UniProt P29972); test: Inhibition of AQP1 (unknown origin) expressed in CHO cells assessed as reduction in aquaporin-mediated cell Volume shrinkage at 10 uM by light scattering based assay
T2 sequence (whole entry): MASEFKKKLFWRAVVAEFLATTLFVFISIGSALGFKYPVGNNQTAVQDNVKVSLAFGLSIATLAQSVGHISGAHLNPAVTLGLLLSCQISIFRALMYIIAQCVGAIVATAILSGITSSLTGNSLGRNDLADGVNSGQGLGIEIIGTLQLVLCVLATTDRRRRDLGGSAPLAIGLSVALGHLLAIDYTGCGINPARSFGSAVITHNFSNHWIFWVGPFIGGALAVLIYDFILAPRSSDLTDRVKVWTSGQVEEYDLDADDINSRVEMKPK

[25] = molecular target: Aquaporin-5 (Homo sapiens) (UniProt P55064); test: Inhibition of AQP5 (unknown origin) expressed in CHO cells assessed as reduction in aquaporin-mediated cell Volume shrinkage at 10 uM by light scattering based assay
Aquaporin-5 (Homo sapiens), sequence (P55064 whole entry): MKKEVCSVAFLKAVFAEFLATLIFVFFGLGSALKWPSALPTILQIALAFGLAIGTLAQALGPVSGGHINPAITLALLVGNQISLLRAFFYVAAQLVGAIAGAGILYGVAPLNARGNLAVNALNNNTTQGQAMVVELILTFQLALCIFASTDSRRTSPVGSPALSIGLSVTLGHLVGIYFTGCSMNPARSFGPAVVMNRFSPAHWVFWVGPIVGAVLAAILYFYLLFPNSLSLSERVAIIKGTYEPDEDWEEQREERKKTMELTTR

With `NCCO.NCCO.O=C(Nc1cc(C(F)(F)F)cc(C(F)(F)F)c1)c1cc(Cl)ccc1OP(=O)(O)O` the solubility [1] was 10000 µg/mL, the Drug degradation [2] was 1% and the degraded at 12 h [3] was < 1%. For the same compound, the degraded [4] was 1%, the Drug metabolism [5] was “Metabolite_Detected” and the Drug metabolism [6] was “Metabolite_Notdetected”. For the same compound, the Drug metabolism [7] was “Metabolite_Detected”, the Drug metabolism [8] was 400 ng/mL and the Ka [9] was 0.12 min⁻¹. For the same compound, the k el [10] was 0.000283 s⁻¹.
In the case of `O=C(Nc1cc(C(F)(F)F)cc(C(F)(F)F)c1)c1cc(Cl)ccc1OP(=O)([O-])[O-].[Na+].[Na+]`, the solubility [1] is reported as 1000 to 10000 µg/mL, the degraded ([2]; solid state, read-out: Drug degradation) is reported as 1% and the degraded at 12 h [11] is reported as < 1%. It also gave a degraded [12] of 1%.
With `O=C(Nc1cc(C(F)(F)F)cc(C(F)(F)F)c1)c1cc(Cl)ccc1OP(=O)(O)O` [listing 1 of 2 here] the degraded at 120 h [13] was < 1%.
For `O=C(Nc1cc(C(F)(F)F)cc(C(F)(F)F)c1)c1cc(Cl)ccc1O` [IMD-0354], the Time [14] was 52 min, the inhibition [15] was “Active” and the Cp [16] was 0.03 to 0.06 g. The inhibition [17] was “Active”.
With `O=C(Nc1cc(C(F)(F)F)cc(C(F)(F)F)c1)c1cc(Cl)ccc1OP(=O)(O)O` [listing 2 of 2 here] the Activity [18] was “Active”, the Activity [19] was “Active” and the Activity [20] was “Active”.
With `O=C(Nc1cc(C(F)(F)F)cc(C(F)(F)F)c1)c1cc(Cl)ccc1OP(=O)([O-])O.[Na+]` the Drug degradation [2] was 1%, the degraded at 12 h [21] was < 1% and the degraded [22] was 1%.
In the case of `O=C(Nc1cc(Cl)cc(Cl)c1)c1cc(Cl)ccc1O`, the inhibition [23] is reported as 81%, the inhibition [24] is reported as “inactive” and the inhibition [25] is reported as “inactive”.
